Usually Ki stands for a measure of affinity in units of concentration, obtained from inhibition or displacement.

Here are results for 2 compounds from paper PMC7365090, “In crystallo-screening for discovery of human norovirus 3C-like protease inhibitors” (Journal of Structural Biology: X, 2020).

Each structure is given as a SMILES string. Read-outs that look alike come from different tables or passages of the source.

For this test, the target named is T1, SV3CP (Southampton norovirus 3CL^pro) (Southampton virus (serotype 3), UniProt Q04544).
T1 construct: gene ORF1; mature 3C-like protease (NS6) cut from the ORF1 non-structural polyprotein; purified as in Hussey et al. 2011; mass 19,290 Da (intact); dimer in asymmetric unit, putative crystallographic tetramer
As to the kind of experiment: chromogenic protease assay, […] nm. Type of test: biochemical.

T1 sequence (Q04544 1100-1280): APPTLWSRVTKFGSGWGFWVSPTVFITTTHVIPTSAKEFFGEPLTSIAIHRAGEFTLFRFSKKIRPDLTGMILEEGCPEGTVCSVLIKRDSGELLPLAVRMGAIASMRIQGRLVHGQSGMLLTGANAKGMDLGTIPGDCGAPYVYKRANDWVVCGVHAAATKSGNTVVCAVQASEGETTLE

Consider `Cc1ccc(CNc2cccc(C(=O)O)c2)s1` [J01], for which the Ki (read-out: Ki) is 370 µM. Consider `O=C(O)c1csc(-c2ccc(C(F)(F)F)cc2)n1` [J02], for which the Ki was found to be 340 µM.
